Source: ChEMBL document CHEMBL1133032, “Combinatorial approach to lead optimization of a novel hexapeptide with antifungal activity” (Bioorg Med Chem Lett, 2000)
Values after ≈ are worked out from the molar mass of the structure shown. Square brackets hold non-standard residues; d marks the D form. Peptide text beside a SMILES is read from it.

Assays:
[1] = system: Cryptococcus neoformans; test: Lowest concentration of compound that substantially inhibited the growth of Cryptococcus neoformans after 48 hr; assay type: functional
[2] = system: Candida albicans; test: Antifungal activity against Candida albicans using twofold microbroth dilution technique.; assay type: functional, organism-based

MIC [1]	IC50 [2]	SMILES
55.8 µM (≈ 50 µg/mL)	–	CC[C@H](C)[C@H](NC(=O)[C@@H](Cc1ccccc1)NC(=O)[C@@H](Cc1c[nH]c2ccccc12)NC(=O)[C@@H](N)CCCN=C(N)N)C(=O)N[C@H](Cc1ccccc1)C(=O)N[C@@H](CCC(=O)O)C(N)=O [listing 1 of 2 here]
28.9 µM (≈ 25 µg/mL)	–	CC[C@H](C)[C@H](NC(=O)[C@@H](Cc1ccccc1)NC(=O)[C@@H](Cc1c[nH]c2ccccc12)NC(=O)[C@@H](N)CCCN=C(N)N)C(=O)N[C@H](Cc1ccccc1)C(=O)N1CCC[C@H]1C(N)=O [listing 1 of 2 here]
–	30.2 µM	CC[C@H](C)[C@H](NC(=O)[C@@H](Cc1ccccc1)NC(=O)[C@@H](Cc1c[nH]c2ccccc12)NC(=O)[C@@H](N)CCCN=C(N)N)C(=O)N[C@H](Cc1ccccc1)C(=O)N[C@@H](CCC(N)=O)C(N)=O [listing 1 of 2 here]
–	13.7 µM	CC[C@H](C)[C@H](NC(=O)[C@@H](Cc1ccccc1)NC(=O)[C@@H](Cc1c[nH]c2ccccc12)NC(=O)[C@@H](N)CCCN=C(N)N)C(=O)N[C@H](Cc1ccccc1)C(=O)N[C@@H](Cc1ccccc1)C(N)=O [listing 1 of 2 here]
–	> 14.9 µM	CC[C@H](C)[C@H](NC(=O)[C@@H](Cc1ccccc1)NC(=O)[C@@H](Cc1c[nH]c2ccccc12)NC(=O)[C@@H](N)CCCN=C(N)N)C(=O)N[C@H](Cc1ccccc1)C(=O)N[C@@H](C)C(N)=O [listing 1 of 2 here]
–	25.4 µM	CC[C@H](C)[C@H](NC(=O)[C@@H](Cc1ccccc1)NC(=O)[C@@H](Cc1c[nH]c2ccccc12)NC(=O)[C@@H](N)CCCN=C(N)N)C(=O)N[C@H](Cc1ccccc1)C(=O)N[C@@H](Cc1c[nH]c2ccccc12)C(N)=O [listing 1 of 2 here]
–	6.85 µM	CC[C@H](C)[C@H](NC(=O)[C@@H](Cc1ccccc1)NC(=O)[C@@H](Cc1c[nH]c2ccccc12)NC(=O)[C@@H](N)CCCN=C(N)N)C(=O)N[C@H](Cc1ccccc1)C(=O)N[C@@H](Cc1c[nH]cn1)C(N)=O (H-R[dW][dF]I[dF]H-NH2) [listing 1 of 2 here]
14.4 µM (≈ 12.5 µg/mL)	–	CC[C@H](C)[C@H](NC(=O)[C@@H](Cc1ccccc1)NC(=O)[C@@H](Cc1c[nH]c2ccccc12)NC(=O)[C@@H](N)CCCN=C(N)N)C(=O)N[C@H](Cc1ccccc1)C(=O)N[C@H](C(N)=O)[C@@H](C)O [listing 1 of 2 here]
14.2 µM (≈ 12.5 µg/mL)	–	CC[C@H](C)[C@H](NC(=O)[C@@H](Cc1ccccc1)NC(=O)[C@@H](Cc1c[nH]c2ccccc12)NC(=O)[C@@H](N)CCCN=C(N)N)C(=O)N[C@H](Cc1ccccc1)C(=O)N[C@@H](CC(N)=O)C(N)=O [listing 1 of 2 here]
113 µM (≈ 100 µg/mL)	–	CC[C@H](C)[C@H](NC(=O)[C@@H](Cc1ccccc1)NC(=O)[C@@H](Cc1c[nH]c2ccccc12)NC(=O)[C@@H](N)CCCN=C(N)N)C(=O)N[C@H](Cc1ccccc1)C(=O)N[C@@H](CC(=O)O)C(N)=O [listing 1 of 2 here]
–	> 14.9 µM	CC[C@H](C)[C@H](NC(=O)[C@@H](Cc1ccccc1)NC(=O)[C@@H](Cc1c[nH]c2ccccc12)NC(=O)[C@@H](N)CCCN=C(N)N)C(=O)N[C@H](Cc1ccccc1)C(=O)N[C@H](C(N)=O)[C@@H](C)O [listing 2 of 2 here]
6.85 µM (≈ 6.19 µg/mL)	–	CC[C@H](C)[C@H](NC(=O)[C@@H](Cc1ccccc1)NC(=O)[C@@H](Cc1c[nH]c2ccccc12)NC(=O)[C@@H](N)CCCN=C(N)N)C(=O)N[C@H](Cc1ccccc1)C(=O)N[C@@H](Cc1c[nH]cn1)C(N)=O (H-R[dW][dF]I[dF]H-NH2) [listing 2 of 2 here]
55.9 µM (≈ 50 µg/mL)	–	CC[C@H](C)[C@H](NC(=O)[C@@H](Cc1ccccc1)NC(=O)[C@@H](Cc1c[nH]c2ccccc12)NC(=O)[C@@H](N)CCCN=C(N)N)C(=O)N[C@H](Cc1ccccc1)C(=O)N[C@@H](CCC(N)=O)C(N)=O [listing 2 of 2 here]
–	> 28.4 µM	CC[C@H](C)[C@H](NC(=O)[C@@H](Cc1ccccc1)NC(=O)[C@@H](Cc1c[nH]c2ccccc12)NC(=O)[C@@H](N)CCCN=C(N)N)C(=O)N[C@H](Cc1ccccc1)C(=O)N[C@H](C(N)=O)C(C)C [listing 1 of 2 here]
13.1 µM (≈ 12.5 µg/mL)	–	CC[C@H](C)[C@H](NC(=O)[C@@H](Cc1ccccc1)NC(=O)[C@@H](Cc1c[nH]c2ccccc12)NC(=O)[C@@H](N)CCCN=C(N)N)C(=O)N[C@H](Cc1ccccc1)C(=O)N[C@@H](Cc1c[nH]c2ccccc12)C(N)=O [listing 2 of 2 here]
13.4 µM (≈ 12.5 µg/mL)	–	CC[C@H](C)[C@H](NC(=O)[C@@H](Cc1ccccc1)NC(=O)[C@@H](Cc1c[nH]c2ccccc12)NC(=O)[C@@H](N)CCCN=C(N)N)C(=O)N[C@H](Cc1ccccc1)C(=O)N[C@@H](Cc1ccc(O)cc1)C(N)=O [listing 1 of 2 here]
6.71 µM (≈ 6.19 µg/mL)	–	CC[C@H](C)[C@H](NC(=O)[C@@H](Cc1ccccc1)NC(=O)[C@@H](Cc1c[nH]c2ccccc12)NC(=O)[C@@H](N)CCCN=C(N)N)C(=O)N[C@H](Cc1ccccc1)C(=O)N[C@@H](CCCN=C(N)N)C(N)=O [listing 1 of 2 here]
6.81 µM (≈ 6.2 µg/mL)	28.6 µM	NCCCC[C@H](NC(=O)[C@@H](Cc1ccccc1)NC(=O)[C@H](Cc1ccccc1)NC(=O)[C@@H](Cc1ccccc1)NC(=O)[C@@H](Cc1c[nH]c2ccccc12)NC(=O)[C@@H](N)Cc1c[nH]cn1)C(N)=O (H-H[dW][dF]F[dF]K-NH2)
–	> 28.4 µM	CC[C@H](C)[C@H](NC(=O)[C@@H](Cc1ccccc1)NC(=O)[C@@H](Cc1c[nH]c2ccccc12)NC(=O)[C@@H](N)CCCN=C(N)N)C(=O)N[C@H](Cc1ccccc1)C(=O)N[C@@H](CCC(=O)O)C(N)=O [listing 2 of 2 here]
7.04 µM (≈ 6.2 µg/mL)	–	CC[C@H](C)[C@H](NC(=O)[C@@H](Cc1ccccc1)NC(=O)[C@@H](Cc1c[nH]c2ccccc12)NC(=O)[C@@H](N)CCCN=C(N)N)C(=O)N[C@H](Cc1ccccc1)C(=O)N[C@@H](CC(C)C)C(N)=O [listing 1 of 2 here]

MIC [1]	IC50 [2]	SMILES
–	> 14.9 µM	CC[C@H](C)[C@H](NC(=O)[C@@H](Cc1ccccc1)NC(=O)[C@@H](Cc1c[nH]c2ccccc12)NC(=O)[C@@H](N)CCCN=C(N)N)C(=O)N[C@H](Cc1ccccc1)C(=O)N[C@@H](CC(=O)O)C(N)=O [listing 2 of 2 here]
–	14.4 µM	CC[C@H](C)[C@H](NC(=O)[C@@H](Cc1ccccc1)NC(=O)[C@@H](Cc1c[nH]c2ccccc12)NC(=O)[C@@H](N)CCCN=C(N)N)C(=O)N[C@H](Cc1ccccc1)C(=O)N[C@@H](CCCCN)C(N)=O [listing 1 of 2 here]
–	45.6 µM	CC[C@H](C)[C@H](NC(=O)[C@@H](Cc1ccccc1)NC(=O)[C@@H](NC(=O)[C@@H](Cc1ccccc1)NC(=O)[C@@H](Cc1c[nH]c2ccccc12)NC(=O)[C@@H](N)CCCN=C(N)N)[C@@H](C)CC)C(N)=O [listing 1 of 2 here]
6.92 µM (≈ 6.19 µg/mL)	–	CC[C@H](C)[C@H](NC(=O)[C@@H](Cc1ccccc1)NC(=O)[C@@H](Cc1c[nH]c2ccccc12)NC(=O)[C@@H](N)CCCN=C(N)N)C(=O)N[C@H](Cc1ccccc1)C(=O)N[C@@H](CCCCN)C(N)=O [listing 2 of 2 here]
–	24.5 µM	CC[C@H](C)[C@H](NC(=O)[C@@H](Cc1ccccc1)NC(=O)[C@@H](Cc1c[nH]c2ccccc12)NC(=O)[C@@H](N)CCCN=C(N)N)C(=O)N[C@H](Cc1ccccc1)C(=O)N[C@@H](CCSC)C(N)=O [listing 1 of 2 here]
–	14.9 µM	CC[C@H](C)[C@H](NC(=O)[C@@H](Cc1ccccc1)NC(=O)[C@@H](Cc1c[nH]c2ccccc12)NC(=O)[C@@H](N)CCCN=C(N)N)C(=O)N[C@H](Cc1ccccc1)C(=O)N[C@@H](CC(C)C)C(N)=O [listing 2 of 2 here]
–	> 12.5 µM	CC[C@H](C)[C@H](NC(=O)[C@@H](Cc1ccccc1)NC(=O)[C@@H](Cc1c[nH]c2ccccc12)NC(=O)[C@@H](N)CCCN=C(N)N)C(=O)N[C@H](Cc1ccccc1)C(=O)N[C@@H](CCCN=C(N)N)C(N)=O [listing 2 of 2 here]
14.6 µM (≈ 12.5 µg/mL)	–	CC[C@H](C)[C@H](NC(=O)[C@@H](Cc1ccccc1)NC(=O)[C@@H](Cc1c[nH]c2ccccc12)NC(=O)[C@@H](N)CCCN=C(N)N)C(=O)N[C@H](Cc1ccccc1)C(=O)N[C@@H](CO)C(N)=O [listing 1 of 2 here]
27.8 µM (≈ 25 µg/mL)	–	CC[C@H](C)[C@H](NC(=O)[C@@H](Cc1ccccc1)NC(=O)[C@@H](Cc1c[nH]c2ccccc12)NC(=O)[C@@H](N)CCCN=C(N)N)C(=O)N[C@H](Cc1ccccc1)C(=O)N[C@@H](CCSC)C(N)=O [listing 2 of 2 here]
14.4 µM (≈ 12.5 µg/mL)	–	CC[C@H](C)[C@H](NC(=O)[C@@H](Cc1ccccc1)NC(=O)[C@@H](Cc1c[nH]c2ccccc12)NC(=O)[C@@H](N)CCCN=C(N)N)C(=O)N[C@H](Cc1ccccc1)C(=O)N[C@H](C(N)=O)C(C)C [listing 2 of 2 here]
–	51.4 µM	CC[C@H](C)[C@H](NC(=O)[C@@H](Cc1ccccc1)NC(=O)[C@@H](Cc1c[nH]c2ccccc12)NC(=O)[C@@H](N)CCCN=C(N)N)C(=O)N[C@H](Cc1ccccc1)C(=O)N1CCC[C@H]1C(N)=O [listing 2 of 2 here]
–	> 14.9 µM	CC[C@H](C)[C@H](NC(=O)[C@@H](Cc1ccccc1)NC(=O)[C@@H](Cc1c[nH]c2ccccc12)NC(=O)[C@@H](N)CCCN=C(N)N)C(=O)N[C@H](Cc1ccccc1)C(=O)N[C@@H](CC(N)=O)C(N)=O [listing 2 of 2 here]
15.2 µM (≈ 12.5 µg/mL)	–	CC[C@H](C)[C@H](NC(=O)[C@@H](Cc1ccccc1)NC(=O)[C@@H](Cc1c[nH]c2ccccc12)NC(=O)[C@@H](N)CCCN=C(N)N)C(=O)N[C@H](Cc1ccccc1)C(=O)NCC(N)=O [listing 1 of 2 here]
–	> 14.9 µM	CC[C@H](C)[C@H](NC(=O)[C@@H](Cc1ccccc1)NC(=O)[C@@H](Cc1c[nH]c2ccccc12)NC(=O)[C@@H](N)CCCN=C(N)N)C(=O)N[C@H](Cc1ccccc1)C(=O)N[C@@H](CO)C(N)=O [listing 2 of 2 here]
–	33.9 µM	CC[C@H](C)[C@H](NC(=O)[C@@H](Cc1ccccc1)NC(=O)[C@@H](Cc1c[nH]c2ccccc12)NC(=O)[C@@H](N)CCCN=C(N)N)C(=O)N[C@H](Cc1ccccc1)C(=O)NCC(N)=O [listing 2 of 2 here]
28.4 µM (≈ 25 µg/mL)	–	CC[C@H](C)[C@H](NC(=O)[C@@H](Cc1ccccc1)NC(=O)[C@@H](NC(=O)[C@@H](Cc1ccccc1)NC(=O)[C@@H](Cc1c[nH]c2ccccc12)NC(=O)[C@@H](N)CCCN=C(N)N)[C@@H](C)CC)C(N)=O [listing 2 of 2 here]
–	15.9 µM	CC[C@H](C)[C@H](NC(=O)[C@@H](Cc1ccccc1)NC(=O)[C@@H](Cc1c[nH]c2ccccc12)NC(=O)[C@@H](N)CCCN=C(N)N)C(=O)N[C@H](Cc1ccccc1)C(=O)N[C@@H](Cc1ccc(O)cc1)C(N)=O [listing 2 of 2 here]
14.9 µM (≈ 12.5 µg/mL)	–	CC[C@H](C)[C@H](NC(=O)[C@@H](Cc1ccccc1)NC(=O)[C@@H](Cc1c[nH]c2ccccc12)NC(=O)[C@@H](N)CCCN=C(N)N)C(=O)N[C@H](Cc1ccccc1)C(=O)N[C@@H](C)C(N)=O [listing 2 of 2 here]
13.7 µM (≈ 12.5 µg/mL)	–	CC[C@H](C)[C@H](NC(=O)[C@@H](Cc1ccccc1)NC(=O)[C@@H](Cc1c[nH]c2ccccc12)NC(=O)[C@@H](N)CCCN=C(N)N)C(=O)N[C@H](Cc1ccccc1)C(=O)N[C@@H](Cc1ccccc1)C(N)=O [listing 2 of 2 here]
